Like-named read-outs stand apart in the source and are kept apart here.
Key:
[1] = Thermal stability of K2FeO4, cycling temperature profile (AR 70-38); type: physicochemical; conditions: cycling daily from 23° C. to 71° C. and back again
Method: The cycling temperature profile specified in AR 70-38 also was studied. An oven (Fisher Scientific model No. 48) was outfitted with a programmable temperature controller (Omega Engineering model CN3251) and a small fan in order to provide air circulation. Temperature data acquisition was performed using a HOBO data logger (Onset Computer Corp., model HTEA −39+123° C.). The temperature controller was programmed to meet the specifications of AR 70-38 Sec. II, Table 2-2 (Storage and Transit Conditions). Specifically, the oven was programmed to remain above 66° C. for at least 5 hrs and to reach a peak temperature of 71° C. for not more than 1 hr. The programmed parameters appear below in Table 1.

[2] = Treatment of unstained HAP disk (staining by the reagent itself); conditions: disk D: unstained disk, 100 μL pH 7 HEPA buffer, 1.3 mg
Method: Tea staining Procedure: A calcium-deficient hydroxyapatite (HAP) disk (Clarkson Chromatography Products) was placed into a 50-mL centrifuge tube with 10 mL of tea solution. The centrifuge tube was gently shaken by hand for 15 minutes. The tea solution was decanted and replaced with 10 mL of HPDI water and vortexed for 30 seconds. The water was decanted and replaced with 10 additional mL of HPDI water and vortexed for 30 seconds. The disk was removed with forceps and patted dry with a tissue. The disk was allowed to air dry at room temperature for at least one hour.
(§1) Oxidation resistant chelating buffer: 0.25M 1-Hydroxyethylidenediphosphonic acid (etridonic acid) (Dequest® 2010, Thermphos) (HEPA) was pH adjusted by microtitration with 10N NaOH. 1.28 g of 1-Hydroxyethylidenediphosphonic acid was to a 25-mL volumetric flask and brought to volume with HPDI water. The solution was transferred to a 50-mL beaker with a stir bar and pH adjusted using 10.04N NaOH, monitored with a calibrated pH meter. Aliquat 336® (Cognis) (also suitable is Aliquat 134®) (N-methyl-tri-(n-octyl)ammonium chloride), (N-methyl TOA) or “HEPA” chelating pH Buffer: 2.5-μL of N-methyl TOA was added to 5 mL of pH 7 HEPA buffer and sonicated for 1 minute. pH 7 Sodium Dodecyl Sulfate (SDS)/HEPA Buffer: 10 mg of SDS was added to 5 mL of pH 7 HEPA buffer and sonicated for 1 minute. pH 8 SDS/HEPA Buffer: 10 mg of SDS was added to 5 mL of pH 8 HEPA buffer and sonicated for 1 minute.
• A. A tea stained disk was placed into the bowl of the bowl of a watch glass and 100 μL of pH 7 HEPA buffer was pipetted onto the disk surface. 3.7 mg of potassium ferrate(VI) was added to the disk surface and mixed gently. […] The disk was rinsed at 10 minutes with HPDI water. […] 1 mL of pH 7 HEPA buffer was added followed by 9 mL of HPDI water. 9.7 mg of potassium ferrate(VI) was added. The tube was gently hand shaken for 10 minutes. The disk was removed and rinsed with HPDI water. […] 10 mg of potassium ferrate(VI) was added to 1 mL of pH 7 HEPA buffer in a 50 mL centrifuge tube. 9 mL HPDI water was added, and the solution was shaken for a few seconds followed by the addition of a tea stained HAP disk. The disk was removed at 10 minutes and rinsed with HPDI water. […] 1.3 mg of potassium ferrate(VI) added and mixed into the solution. […] 1.4 mg of potassium ferrate(VI) was added to the disk surface and mixed gently. […] The reaction was allowed to continue for 5 minutes. […] The disk was rinsed several times with HPDI water. 100 μL of pH 7 HEPA buffer was pipetted onto the disk surface and allowed to react for 5 minutes.

[3] = Stain removal from HAP disk, grape juice stain; conditions: disk A-4: grape juice stained disk treated the same way as P and Q (pH 8 SDS/HEPA buffer)
[4] = Stain removal from HAP disk, Cran-Grape juice stain; conditions: disk A-5: Cran-Grape juice stain treated the same way as P and Q (pH 8 SDS/HEPA buffer)
Text: as §1
(§2) • A. A tea stained disk was placed into the bowl of the bowl of a watch glass and 100 μL of pH 7 HEPA buffer was pipetted onto the disk surface. 3.7 mg of potassium ferrate(VI) was added to the disk surface and mixed gently. […] The disk was rinsed at 10 minutes with HPDI water. […] 1 mL of pH 7 HEPA buffer was added followed by 9 mL of HPDI water. 9.7 mg of potassium ferrate(VI) was added. The tube was gently hand shaken for 10 minutes. The disk was removed and rinsed with HPDI water. […] 10 mg of potassium ferrate(VI) was added to 1 mL of pH 7 HEPA buffer in a 50 mL centrifuge tube. 9 mL HPDI water was added, and the solution was shaken for a few seconds followed by the addition of a tea stained HAP disk. The disk was removed at 10 minutes and rinsed with HPDI water. […] 1.3 mg of potassium ferrate(VI) added and mixed into the solution. […] 1.4 mg of potassium ferrate(VI) was added to the disk surface and mixed gently. […] The reaction was allowed to continue for 5 minutes. […] The disk was rinsed several times with HPDI water. 100 μL of pH 7 HEPA buffer was pipetted onto the disk surface and allowed to react for 5 minutes. […] 1 mg of potassium ferrate(VI) was added and mixed into the liquid.

[5] = Stain removal from HAP disk, coffee stain; conditions: disk A-6: coffee stained disk treated the same way as P and Q (pH 8 SDS/HEPA buffer)
Text: as §1, §2

[6] = at 71° C.; pure (80-100%) or moderate purity (50-80%)
Method: The more demanding isothermal test conditions were chosen for the preliminary viability assessment testing. In this series of tests, a Blue M Electric Oven, Model OV-490A-3 (S/N OV-11311, BMI No. N-00154, 120V Single Phase, 38-260° C.), was used. The oven was set to maintain an air temperature of approximately 71.5° C. A mercury thermometer immersed in silicone oil was added to the oven for manual tracking of the temperature, and a HOBO model H08-002-02 external temperature logger (Onset Computer Corp., S/N 5948-9820) was used for automated temperature data acquisition. Four ˜1.0 g samples of K2FeO4 TG were transferred to clean 12 mL glass vials with Teflon-lined caps; these samples with purity from ˜75-93% were chosen specifically to represent a variety of initial purity values. Before closure, the headspace of each vial briefly was purged (˜20 sec at ˜250 cm^3 (STP)) with ultra-high purity (UHP) argon gas to minimize trapped moisture.
The samples were removed from the oven at 1, 2, 5, 7, 12, 27, 48, and 98 days. The purity of each sample was determined by the technique described in Section 3.2.1. Each vial was assayed three times at each sampling point in order to calculate standard deviation and provide an estimate of precision. When returning the vials to the isothermal oven, the headspace of each vial was purged briefly with UHP argon, as before.

For potassium ferrate(VI), which stable to storage [1] is on record?
Its stable to storage is “at least 82 days”.

And the “L* (lightness/darkness)” value [2]?
Its value is 103.4.

And the “a* (blue/red)” value [2]?
Its value is −2.2.

What about the “appearance of disk after treatment” value [2] of the same substance?
Its value is “very slight yellow tint”.

And the “b* (yellow/green)” value [2]?
Its value is 0.5.

What about the “reflectance of visible light at 450 nm” value [2] of the same substance?
Its value is 105.246.

What about the “reflectance of visible light at 750 nm” value [2] of the same substance?
Its value is 102.793.

What about the “ΔE (versus tea stain)” value [2] of the same substance?
The value was 20.34.

And the “L* (lightness/darkness)” value [3]?
Its value is 103.5.

And the “a* (blue/red)” value [3]?
The value was −1.9.

And the “appearance of disk after treatment” value [3]?
Its value is “All stains were removed”.

What about the “b* (yellow/green)” value [3] of the same substance?
Its value is −3.1.

What about the “reflectance of visible light at 450 nm” value [3] of the same substance?
The value was 111.244.

What about the “reflectance of visible light at 750 nm” value [3] of the same substance?
The value was 103.795.

And the “ΔE (grape juice stain)” value [3]?
The value was 6.10.

And the “L* (lightness/darkness)” value [4]?
Its value is 107.3.

And the “a* (blue/red)” value [4]?
The value was −3.2.

What about the “appearance of disk after treatment” value [4] of the same substance?
The value was “All stains were removed”.

And the “b* (yellow/green)” value [4]?
The value was −5.5.

And the “reflectance of visible light at 450 nm” value [4]?
The value was 126.369.

And the “reflectance of visible light at 750 nm” value [4]?
Its value is 108.805.

And the “ΔE (cran-grape juice stain)” value [4]?
The value was 6.82.

What about the “L* (lightness/darkness)” value [5] of the same substance?
The value was 101.9.

And the “a* (blue/red)” value [5]?
The value was −2.1.

And the “appearance of disk after treatment” value [5]?
The value was “All stains were removed”.

What about the “b* (yellow/green)” value [5] of the same substance?
Its value is −2.8.

And the “reflectance of visible light at 450 nm” value [5]?
Its value is 106.774.

And the “reflectance of visible light at 750 nm” value [5]?
Its value is 99.233.

What about the “ΔE (coffee stain)” value [5] of the same substance?
Its value is 13.57.

What about the stable to storage [6] of the same substance?
Its stable to storage is “at least 98 days”.

Reference: patent publication US8663607B2, “Ferrate(VI)-containing compositions and methods of using ferrate(VI)” (Battelle Memorial Institute, priority 2007, dated 2014)
